Results published in the supplement of paper PMC10307832.

What was measured:
Test in all cases: relative viability (nuclei count vs DMSO), 5 days (fraction); higher = more cells survive
Selisistat = compound: C1CC(C2=C(C1)C3=C(N2)C=CC(=C3)Cl)C(=O)N [Selisistat]
Outline: (§1)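 MetaXpress counted nuclei in 4× images of lung cancer cell lines that had been fixed, permeabilised and Hoechst-stained in one step. Before that, cells in 1536-well plates were kept overnight at 37 °C, pinned with five √10-spaced library-drug doses on vehicle-anchored plates, and cultured 5 days without medium change. Viability takes treated-well nuclei over vehicle-well nuclei and uses the median across plates. Plates were accepted only at control CV below 25% and at least one doubling.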

Serdemetan = compound: c1ccc2c(CCNc3ccc(Nc4ccncc4)cc3)c[nH]c2c1 [Serdemetan]
Outline: as §1

Selisistat + Trametinib = compound: C1CC(C2=C(C1)C3=C(N2)C=CC(=C3)Cl)C(=O)N [Selisistat] + CC(=O)Nc1cccc(-n2c(=O)n(C3CC3)c(=O)c3c(Nc4ccc(I)cc4F)n(C)c(=O)c(C)c32)c1 [Trametinib] (partner 0.02 µM)
Outline: (§2)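 Relative viability was taken as the ratio of nuclei in treated wells to nuclei in vehicle wells. Lung cancer cell lines in 1536-well plates received compounds by pin tool one day after seeding, either one drug alone or a fixed anchor-drug dose plus five library-drug doses (not always all listed) in √10 steps. Nuclei were counted on 4× images after 5 days of treatment, and values are medians of duplicate plates.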

Serdemetan + Navitoclax = compound: c1ccc2c(CCNc3ccc(Nc4ccncc4)cc3)c[nH]c2c1 [Serdemetan] + CC1(C)CCC(c2ccc(Cl)cc2)=C(CN2CCN(c3ccc(C(=O)NS(=O)(=O)c4ccc(N[C@H](CCN5CCOCC5)CSc5ccccc5)c(S(=O)(=O)C(F)(F)F)c4)cc3)CC2)C1 [Navitoclax] (partner 0.5 µM)
Outline: as §2

Cell Line	relative viability (Selisistat; 0.4 µM)	relative viability (Selisistat; 1.265 µM)	relative viability (Selisistat; 4 µM)	relative viability (Selisistat; 12.65 µM)	relative viability (Selisistat; 40 µM)	relative viability (Serdemetan; 0.04 µM)	relative viability (Serdemetan; 0.1265 µM)	relative viability (Serdemetan; 0.4 µM)	relative viability (Serdemetan; 1.265 µM)	relative viability (Serdemetan; 4 µM)	relative viability (Selisistat + Trametinib; first compound 0.4 µM)	relative viability (Selisistat + Trametinib; first compound 1.265 µM)	relative viability (Selisistat + Trametinib; first compound 4 µM)	relative viability (Selisistat + Trametinib; first compound 12.65 µM)	relative viability (Selisistat + Trametinib; first compound 40 µM)	relative viability (Serdemetan + Navitoclax; first compound 0.04 µM)	relative viability (Serdemetan + Navitoclax; first compound 0.1265 µM)	relative viability (Serdemetan + Navitoclax; first compound 0.4 µM)	relative viability (Serdemetan + Navitoclax; first compound 1.265 µM)	relative viability (Serdemetan + Navitoclax; first compound 4 µM)
NCI-H2126	1.08	1.05	0.833	0.999	1.02	1.02	1.05	0.96	0.948	1.02	0.557	0.57	0.565	0.555	0.605	0.841	0.869	0.795	0.704	0.825
NCI-H3122	1.03	1.07	0.782	1.03	1.02	0.995	0.984	0.948	0.758	1.02	0.199	0.258	–	0.3	0.213	0.975	0.951	1	–	1.04
NCI-H1975	0.952	0.839	0.763	0.825	0.836	0.934	0.978	0.919	0.937	0.993	0.371	0.358	0.262	0.329	0.33	1.01	0.998	1.2	1.05	1.24
NCI-H1944	1.11	0.92	–	0.858	0.975	0.95	0.918	0.858	0.469	0.738	0.437	0.383	0.455	0.44	0.446	1.07	1.04	0.978	–	0.376
LU99A	1.09	0.992	0.987	0.874	1.01	1.01	0.911	0.903	0.52	0.427	0.596	0.561	0.552	0.52	0.575	0.803	0.842	0.712	0.251	0.26
SW 1573	1.12	0.89	0.896	1.03	1.05	0.904	1.11	0.966	0.48	0.343	0.615	0.505	–	0.563	0.565	0.898	0.876	1.02	0.303	0.105
NCI-H2347	1.02	1.09	0.716	0.993	0.99	0.982	0.887	0.903	0.603	0.7	0.266	0.245	–	0.298	0.285	0.737	0.779	0.712	0.624	0.374
NCI-H2009	1.01	1.03	0.772	0.933	0.975	0.97	0.967	1	0.776	0.885	0.285	0.278	0.287	0.259	0.282	1.11	1.12	1.17	1.06	1.01
HCC-15	1.08	1.04	–	1.02	1.21	1.03	0.999	0.94	0.807	0.712	0.453	0.433	–	0.37	0.468	0.755	0.729	0.624	0.56	0.504
HCC-44	1.01	0.738	1.08	0.982	1.06	0.935	0.982	0.944	0.854	0.962	1.1	1.22	1.13	1.07	1.05	1.13	1.04	0.972	0.756	0.741
COR-L23	1.05	1.06	1.08	0.908	1.01	0.951	0.988	1.06	0.823	0.874	0.66	0.597	0.656	0.614	0.645	1.03	1	1.07	0.939	0.81
HCC-78	0.954	1.08	0.7	0.875	0.939	0.998	0.752	0.842	0.828	0.648	0.783	0.779	0.696	0.744	0.732	0.758	0.898	0.774	0.756	0.384
NCI-H727	0.95	1	–	0.863	0.895	0.936	0.808	1.07	0.669	0.555	0.467	0.38	0.409	0.427	0.44	0.511	0.354	0.391	0.231	0.226
NCI-H2087	1.18	1.06	–	0.89	0.97	1.16	1.08	0.944	0.57	0.409	0.194	0.164	–	0.22	0.202	1.05	1	0.715	0.467	0.64
BEN	1.01	0.967	0.738	0.878	0.9	0.996	0.924	1.02	0.686	0.882	1.05	0.882	0.896	1.03	0.957	0.0749	0.0626	0.0845	0.0724	0.0676
EKVX	1.05	0.993	0.788	0.902	0.92	0.987	0.987	0.647	0.627	0.891	0.383	0.392	0.324	0.379	0.48	0.862	0.888	0.973	0.791	0.91
